Data on 2 compounds can be found in paper PMC2774621, “Homogenous Fluorescent Assays for Characterizing Small-Molecule Activators of AMP-Activated Protein Kinase (AMPK)” (Current Chemical Genomics, 2008).

Bounds are passed on as bounds.

Assay [1] has as its target T1, AMPK α2β1γ1 (Homo sapiens, UniProt P54619+P54646).
T1 construct: made in house; host or cells: Sf9 insect cells (baculovirus)
Nature of the assay: Radiometric kinase assay (SAMS peptide, 32P-ATP). In kind it is biochemical. The method, then:
(§1) Kinase reactions were performed at room temperature in 50 mM HEPES pH 7.5, 0.01% BRIJ-35, 10 mM MgCl2, and 1 mM EGTA in a 30 µL assay volume in 96-well plates. For the inhibition experiments, a 2-fold dilution series of inhibitor stock solutions was first prepared in 100% DMSO at 100-fold concentration of inhibitor to be used in the assay. Prior to the assay, 4 µL of each inhibitor concentration was further diluted to 100 µL in assay buffer to prepare a working stock of inhibitor in 4% DMSO at 4-fold the final assay concentration. For the activation experiments, activators were prepared in 100% H2O at 4-fold the concentration to be tested in the assay. Assays were performed as follows: 7.5 µL of the inhibitor or activator working stock was added to a 17.5 µL solution of assay buffer, substrate and [^32P]-ATP (0.5 µCi/well), followed by 5 µL of enzyme to start the assay. All assays were performed in triplicate. The final concentration of SAMS peptide substrate in the reaction was 200 µM. AMPK α1β1γ1 was used at 334 ng/mL (1.8 nM) in the inhibition experiments and 83.3 ng/mL (0.44 nM) in the activation experiments, at an ATP concentration of 35 µM. AMPK α2β1γ1 was used at 1670 ng/mL (8.9 nM) in the inhibition experiments and 267 ng/mL (1.4 nM) in the activation experiments, at an ATP concentration of 65 µM. After 10 minutes, 20 µL of the reaction was spotted onto a p81 filter. The filters were washed three times in 0.5% phosphoric acid, and twice in distilled water before being counted in Beckman Coulter Ready Safe liquid scintillation cocktail using a Beckman Coulter LS6500 Multipurpose Scintillation Counter. Scintillation Counter output (cpm) was used to calculate specific activity (nmole / (min•mg)).
(§2) Data analysis and curve-fitting was performed using GraphPad Prism software (GraphPad Software, Inc, San Diego CA).

The next assay concerns the target T2, AMPK α1β1γ1 (Homo sapiens, UniProt P54619+Q13131).
T2 construct: made in house; host or cells: Sf9 insect cells (baculovirus)
Put plainly: TR-FRET activity assay (LanthaScreen, fluorescein-CREBtide). To be noted: ATP 50 µM, substrate 400 nM, read-out: Activator EC50. In kind it is biochemical. The method, then:
(§3) Activators and inhibitors were prepared as described for the radiometric assay. Assays were performed as follows: 2.5 µL of the inhibitor or activator working stock was added to a 5 µL solution of kinase and substrate, followed by 2.5 µL of ATP to start the assay. Assays were performed in quadruplicate. […] After one hour, a 10 µL solution of EDTA and terbium labeled phospho-specific antibody in 20 mM Tris, pH 7.5 and 0.01% NP-40 was added to a final well volume of 20 µL, a final antibody concentration of 1 nM, and a final EDTA concentration of 10 mM. After a 30 minute incubation at room temperature the assay plate was read on a BMG Pherastar plate reader using the LanthaScreen™ filter module. The TR-FRET ratio was calculated as the intensity of the acceptor signal divided by the intensity of the donor signal.
as §2
(In general: TR-FRET usually uses a lanthanide donor and a delayed reading to cut background.)

Assay [2] addresses T1, AMPK α2β1γ1. Described as above. Conditions: TR-FRET, ATP 150 µM, substrate 400 nM; read-out: Activator EC50. In kind it is biochemical. As for the experimental part: as §3, §2
Assay [3] has as its target AMPK α1β1γ1 and α2β1γ1 (Homo sapiens, UniProt P54619+P54646). Put plainly: Summary statements across all assay formats (radiometric, TR-FRET, FRET, CHEF). The format is biochemical. Conditions: read-out: half-maximal stimulatory concentration; all assay formats. As for the experimental part: as §1
(§4) Kinase reactions were performed in a 10 µL assay volume at room temperature in 384-well low volume plates (Corning model 3676) using the same assay buffer as the radiometric assay. Activators and inhibitors were prepared as described for the radiometric assay. Assays were performed as follows: 2.5 µL of the inhibitor or activator working stock was added to a 5 µL solution of kinase and substrate, followed by 2.5 µL of ATP to start the assay. Assays were performed in quadruplicate. The final concentration of fluorescein-labeled CREBtide peptide substrate (derived from residues 123-136 of CREB protein) in the reaction was 400 nM. AMPK α1β1γ1 was used at 600 ng/mL (3.1 nM) in the inhibition experiments and 200 ng/mL (1.1 nM) in the activation experiments, at an ATP concentration of 50 µM. AMPK α2β1γ1 was used at 5 µg/mL (26.5 nM) in the inhibition experiments and 600 ng/mL (3.2 nM) in the activation experiments, at an ATP concentration of 150 µM. After one hour, a 10 µL solution of EDTA and terbium labeled phospho-specific antibody in 20 mM Tris, pH 7.5 and 0.01% NP-40 was added to a final well volume of 20 µL, a final antibody concentration of 1 nM, and a final EDTA concentration of 10 mM. After a 30 minute incubation at room temperature the assay plate was read on a BMG Pherastar plate reader using the LanthaScreen™ filter module. The TR-FRET ratio was calculated as the intensity of the acceptor signal divided by the intensity of the donor signal.
(§5) Kinase reactions were performed in a 10 µL assay volume at room temperature in 384-well low volume plates (Corning model 3676) using the same assay buffer as the radiometric assay. Inhibitors and activators were prepared as described for the radiometric assays. Assays were performed as follows: 2.5 µL of the inhibitor or activator working stock was added to a 5 µL solution of kinase and substrate, followed by 2.5 µL of ATP to start the assay. All assays were performed in quadruplicate. The final concentration of Z’-LYTE™ S/T23 peptide substrate in the reaction was 2 µM. AMPK α1β1γ1 was used at 79 ng/mL (0.42 nM) in the inhibition experiments and 41 ng/mL (0.22 nM) in the activation experiments, at an ATP concentration of 50 µM. […]

The target in assay [4] is T3, AMPK α1β1γ1 and α2β1γ1 (Homo sapiens, UniProt P54619+P54646+Q9Y478).
T3 construct: made in house; host or cells: Sf9 insect cells (baculovirus)
Described as above. To be noted: α2β1γ1 isoform. In kind it is biochemical. The method, then:
as §1, §4, §5

The target in assay [5] is T4, AMPK α1β1γ1 and α2β1γ1 (Homo sapiens, UniProt P54619+Q13131+Q9Y478).
T4 construct: made in house; host or cells: Sf9 insect cells (baculovirus)
The description is as above. The format is biochemical. To be noted: α1β1γ1 isoform, any formats. As for the experimental part:
as §1, §4, §5

In assay [6] the test system is partially purified human AMPK. More on the design: method as in PMID 8185610. To be noted: cited from earlier work.
Assay [7] deals with partially purified rat AMPK. More on the design: method as in PMID 8185610. To be noted: cited from earlier work.
Assay [8] relates to rat-liver or recombinant AMPK (α1β1γ1). Also on record: method as in PMID 16753576. Conditions: read-out: EC50 of AMPK activation; cited from earlier work.

T1 sequence (P54646 whole entry): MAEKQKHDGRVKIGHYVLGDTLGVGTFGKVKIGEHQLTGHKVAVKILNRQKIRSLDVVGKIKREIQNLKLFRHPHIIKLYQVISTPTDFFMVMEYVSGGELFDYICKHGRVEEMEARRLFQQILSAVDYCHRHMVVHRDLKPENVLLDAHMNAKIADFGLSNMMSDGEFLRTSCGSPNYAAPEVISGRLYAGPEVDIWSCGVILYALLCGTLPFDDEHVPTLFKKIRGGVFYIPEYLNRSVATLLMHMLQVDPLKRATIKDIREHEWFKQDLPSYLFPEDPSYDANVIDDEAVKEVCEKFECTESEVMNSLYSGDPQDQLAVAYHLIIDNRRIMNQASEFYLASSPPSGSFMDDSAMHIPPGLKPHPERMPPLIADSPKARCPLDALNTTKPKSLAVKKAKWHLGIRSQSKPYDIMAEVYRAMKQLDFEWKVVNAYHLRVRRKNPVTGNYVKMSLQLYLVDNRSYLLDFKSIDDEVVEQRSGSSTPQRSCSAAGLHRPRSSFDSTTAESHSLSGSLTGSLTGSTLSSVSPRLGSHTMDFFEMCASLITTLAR
T1 sequence (Q9Y478 whole entry partner): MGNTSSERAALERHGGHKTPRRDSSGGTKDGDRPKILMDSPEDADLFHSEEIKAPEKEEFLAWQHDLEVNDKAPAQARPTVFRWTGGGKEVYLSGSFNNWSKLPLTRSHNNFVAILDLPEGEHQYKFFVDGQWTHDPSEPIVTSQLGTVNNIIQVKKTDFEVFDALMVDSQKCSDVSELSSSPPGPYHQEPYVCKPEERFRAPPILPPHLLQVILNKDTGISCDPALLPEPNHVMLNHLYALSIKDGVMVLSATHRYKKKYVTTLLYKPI
T1 sequence (P54619 whole entry): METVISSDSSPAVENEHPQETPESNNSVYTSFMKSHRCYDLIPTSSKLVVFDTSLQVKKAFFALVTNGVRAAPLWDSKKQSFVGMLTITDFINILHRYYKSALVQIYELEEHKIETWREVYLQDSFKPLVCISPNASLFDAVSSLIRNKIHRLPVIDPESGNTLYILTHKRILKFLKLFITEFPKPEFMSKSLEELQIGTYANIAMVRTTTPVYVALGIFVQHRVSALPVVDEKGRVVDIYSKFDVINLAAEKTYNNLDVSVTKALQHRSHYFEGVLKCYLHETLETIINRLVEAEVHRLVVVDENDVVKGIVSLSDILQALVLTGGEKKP
T2 sequence (Q13131 whole entry): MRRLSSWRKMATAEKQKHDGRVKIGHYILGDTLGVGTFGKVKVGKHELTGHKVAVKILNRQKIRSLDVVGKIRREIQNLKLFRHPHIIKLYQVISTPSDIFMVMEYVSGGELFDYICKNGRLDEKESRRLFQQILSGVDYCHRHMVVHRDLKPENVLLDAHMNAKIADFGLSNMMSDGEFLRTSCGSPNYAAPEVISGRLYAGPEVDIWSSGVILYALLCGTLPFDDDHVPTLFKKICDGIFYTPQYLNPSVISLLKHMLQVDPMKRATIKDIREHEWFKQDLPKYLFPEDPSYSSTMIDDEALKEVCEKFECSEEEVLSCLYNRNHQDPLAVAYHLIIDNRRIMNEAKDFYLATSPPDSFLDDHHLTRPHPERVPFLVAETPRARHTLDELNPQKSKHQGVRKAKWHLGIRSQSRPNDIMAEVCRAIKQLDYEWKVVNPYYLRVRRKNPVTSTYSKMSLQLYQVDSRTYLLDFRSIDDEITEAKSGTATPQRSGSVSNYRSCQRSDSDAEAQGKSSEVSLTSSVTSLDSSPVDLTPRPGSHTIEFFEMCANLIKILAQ
T2 sequence (Q9Y478 whole entry partner): as the sequence (Q9Y478 whole entry partner) above
T2 sequence (P54619 whole entry): as the sequence (P54619 whole entry) above
T4 sequence (Q13131 whole entry): as the sequence (Q13131 whole entry) above
T4 sequence (Q9Y478 whole entry): as the sequence (Q9Y478 whole entry partner) above
T4 sequence (P54619 whole entry): as the sequence (P54619 whole entry) above
Chain of AMPK α1β1γ1 and α2β1γ1 (Homo sapiens, UniProt P54619+P54646) (P54619 whole entry, the tested form may be a part): as the sequence (P54619 whole entry) above
Chain of AMPK α1β1γ1 and α2β1γ1 (Homo sapiens, UniProt P54619+P54646) (P54646 whole entry, the tested form may be a part): as the sequence (P54646 whole entry) above
Chain of AMPK α1β1γ1 and α2β1γ1 (Homo sapiens, UniProt P54619+P54646) (Q9Y478 whole entry partner, the tested form may be a part): as the sequence (Q9Y478 whole entry partner) above
T3 sequence (P54646 whole entry): as the sequence (P54646 whole entry) above
T3 sequence (Q9Y478 whole entry): as the sequence (Q9Y478 whole entry partner) above
T3 sequence (P54619 whole entry): as the sequence (P54619 whole entry) above

For the compound `Nc1ncnc2c1ncn2[C@@H]1O[C@H](COP(N)(=O)O)[C@@H](O)[C@H]1O` [APR, adenosine 5′-monophosphoramidate], the EC50 at AMPK α2β1γ1 [1] is 194 µM; on AMPK α1β1γ1 it was 722 µM; at AMPK α2β1γ1 [2], 43 µM; at AMPK α1β1γ1 and α2β1γ1 [3], > 50 µM; in [7] (rat AMPK, read-out: half-maximal stimulatory concentration), 1.9 µM. Further, the Max. fold-activation at AMPK α2β1γ1 [1] (radiometric, ATP 65 µM, SAMS 200 µM) is 1.9 fold. Also, at AMPK α1β1γ1 and α2β1γ1 [4], the “maximal extent of activation” value was in the range of 2 to 3 fold. On AMPK α1β1γ1 and α2β1γ1 [5], the “activation before inhibiting kinase activity to below basal levels” value was “negligible activation”. The “fold stimulation (maximal extent of activation)” value in assay [6] is listed as 2.25 fold; in [7] (partially purified rat AMPK), 1.5 fold.

With `N#Cc1c(O)c2c(-c3ccc(-c4ccccc4O)cc3)csc2[nH]c1=O` [A-769662], the EC50 in assay [8] was ~0.8 µM.
